Experimental data published in US8592629B2, “Sulfonamide derivatives as Nav 1.7 inhibitors” (Pfizer Limited, priority 2010, dated 2013).
pIC50: −log10 of the molar value. Counter-ions that a name gives are not always drawn.

These compounds were tested against T1, Nav1.7 (or SCN9A) channel (Homo sapiens, UniProt Q15858) (assay: Nav1.7 (hSCN9A) block in HEK cells, PatchXpress 7000 automated electrophysiology, estimated IC50 (EIC50)). Conditions: PatchXpress assay; HEK cells stably transfected with hSCN9A, voltage-clamped at V1/2 of inactivation.
T1 construct: expressed in transfected cells
T1 sequence (Q15858 whole entry): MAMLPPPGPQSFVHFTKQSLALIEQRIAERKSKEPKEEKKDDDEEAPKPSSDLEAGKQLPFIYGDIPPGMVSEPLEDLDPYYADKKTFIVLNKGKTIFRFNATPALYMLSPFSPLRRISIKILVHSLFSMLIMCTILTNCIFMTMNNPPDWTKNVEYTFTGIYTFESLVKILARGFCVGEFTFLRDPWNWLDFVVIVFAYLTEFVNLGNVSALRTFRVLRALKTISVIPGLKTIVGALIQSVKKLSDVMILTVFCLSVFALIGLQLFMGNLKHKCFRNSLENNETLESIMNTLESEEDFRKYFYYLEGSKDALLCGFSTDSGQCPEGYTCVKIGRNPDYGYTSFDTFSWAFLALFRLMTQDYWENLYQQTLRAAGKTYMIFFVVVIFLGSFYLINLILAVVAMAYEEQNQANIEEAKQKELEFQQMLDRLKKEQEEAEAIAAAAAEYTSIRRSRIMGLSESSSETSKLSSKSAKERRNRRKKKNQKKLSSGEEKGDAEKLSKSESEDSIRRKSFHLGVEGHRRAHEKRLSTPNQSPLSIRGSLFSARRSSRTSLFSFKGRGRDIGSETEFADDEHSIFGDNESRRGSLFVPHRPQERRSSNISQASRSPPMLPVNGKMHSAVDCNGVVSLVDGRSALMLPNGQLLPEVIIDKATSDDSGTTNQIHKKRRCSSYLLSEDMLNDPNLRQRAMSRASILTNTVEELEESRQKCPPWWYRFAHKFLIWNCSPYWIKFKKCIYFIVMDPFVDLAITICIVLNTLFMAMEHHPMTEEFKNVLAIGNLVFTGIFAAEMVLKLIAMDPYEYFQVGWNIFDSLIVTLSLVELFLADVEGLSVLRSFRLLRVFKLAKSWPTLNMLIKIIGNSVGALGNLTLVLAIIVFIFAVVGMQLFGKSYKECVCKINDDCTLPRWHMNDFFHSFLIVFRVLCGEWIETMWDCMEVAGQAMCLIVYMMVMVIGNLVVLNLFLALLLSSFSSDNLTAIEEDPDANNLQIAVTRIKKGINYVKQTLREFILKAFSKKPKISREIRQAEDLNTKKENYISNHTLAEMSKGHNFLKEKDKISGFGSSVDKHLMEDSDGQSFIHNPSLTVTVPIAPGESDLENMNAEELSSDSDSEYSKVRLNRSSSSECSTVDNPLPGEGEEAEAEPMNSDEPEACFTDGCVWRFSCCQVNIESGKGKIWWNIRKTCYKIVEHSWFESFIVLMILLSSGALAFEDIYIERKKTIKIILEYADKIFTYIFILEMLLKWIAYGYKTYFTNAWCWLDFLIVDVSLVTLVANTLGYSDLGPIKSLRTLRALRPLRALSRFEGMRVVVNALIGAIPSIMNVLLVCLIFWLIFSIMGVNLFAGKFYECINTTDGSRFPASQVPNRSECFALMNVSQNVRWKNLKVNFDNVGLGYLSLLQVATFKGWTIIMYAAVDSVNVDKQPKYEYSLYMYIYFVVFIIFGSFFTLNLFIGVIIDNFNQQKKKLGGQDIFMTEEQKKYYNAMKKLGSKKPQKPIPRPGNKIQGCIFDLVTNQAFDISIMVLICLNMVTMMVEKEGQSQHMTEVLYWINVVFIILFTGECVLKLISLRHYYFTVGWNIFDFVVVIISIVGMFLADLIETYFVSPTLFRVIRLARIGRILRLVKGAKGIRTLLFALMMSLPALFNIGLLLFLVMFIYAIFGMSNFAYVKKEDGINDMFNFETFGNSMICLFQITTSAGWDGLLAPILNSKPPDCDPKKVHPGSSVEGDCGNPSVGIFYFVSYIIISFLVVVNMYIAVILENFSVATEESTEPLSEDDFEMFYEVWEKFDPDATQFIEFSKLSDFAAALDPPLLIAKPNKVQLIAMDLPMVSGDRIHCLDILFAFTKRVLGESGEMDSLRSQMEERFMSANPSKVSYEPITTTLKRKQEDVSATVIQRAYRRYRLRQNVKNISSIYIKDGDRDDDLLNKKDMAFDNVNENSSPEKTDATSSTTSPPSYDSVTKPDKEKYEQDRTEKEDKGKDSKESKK
Assay type: cell-based
How it was run: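 Stable hSCN9A HEK cells voltage-clamped at empirically determined inactivation V1/2 (8 s prepulse), current activated by 20 msec step to 0 mV; % inhibition from current before vs after compound. EIC50 derived from single-point data as concentration × (100−%inhibition)/%inhibition, excluding <20% and >80% inhibition; PatchXpress unless stated.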

Question: With `C[C@H](Oc1ncc(Oc2cc(F)c(C(=O)NS(C)(=O)=O)cc2Cl)cc1Cl)C(F)(F)F` [Example 98, 5-chloro-4-({5-chloro-6-[(1S)-2,2,2-trifluoro-1-methylethoxy]pyridin-3-yl}oxy)-2-fluoro-N-(methylsulfonyl)benzamide] as the compound, how does the pIC50 read?
Answer: 7.92

Question: `C[C@@H](Oc1ncc(Oc2cc(F)c(C(=O)NS(C)(=O)=O)cc2Cl)cc1Cl)C(F)(F)F` [Example 99, 5-chloro-4-({5-chloro-6-[(1R)-2,2,2-trifluoro-1-methylethoxy]pyridin-3-yl}oxy)-2-fluoro-N-(methylsulfonyl)benzamide] was tested. Which pIC50 did it give?
Answer: 7.82

Question: How did the pIC50 turn out when `CS(=O)(=O)NC(=O)c1cc(Cl)c(Oc2cnc(Oc3ccccc3)c(Cl)c2)cc1F` [Example 100, 5-chloro-4-[(5-chloro-6-phenoxypyridin-3-yl)oxy]-2-fluoro-N-(methylsulfonyl)benzamide] was run?
Answer: 7.14

Question: With `CC(C)(C)Oc1ncc(Oc2cc(F)c(C(=O)NS(C)(=O)=O)cc2Cl)cc1Cl` [Example 101, 4-[(6-tert-butoxy-5-chloropyridin-3-yl)oxy]-5-chloro-2-fluoro-N-(methylsulfonyl)benzamide] as the compound, how does the pIC50 read?
Answer: 7.47

Question: `CS(=O)(=O)NC(=O)c1ccc(Nc2cnc(OC(C(F)(F)F)C(F)(F)F)c(Cl)c2)cc1` [Example 103, 4-(5-chloro-6-(1,1,1,3,3,3-hexafluoropropan-2-yloxy)Pyridin-3-ylamino)-N-(methylsulfonyl)benzamide] was tested. Which pIC50 did it give?
Answer: 6.40

Question: How did the pIC50 turn out when `CC(F)(F)Oc1cc(Oc2cc(F)c(C(=O)NS(C)(=O)=O)cc2Cl)cnc1C1CC1` [Example 104, 5-chloro-4-(6-cyclopropyl-5-(1,1-difluoroethoxy)pyridin-3-yloxy)-2-fluoro-N-(methylsulfonyl)benzamide hydrochloride salt] was run?
Answer: 7.17

Question: With `CS(=O)(=O)NC(=O)c1cc(Cl)c(Oc2cnc(OCC(F)(F)C(F)F)c(C(F)(F)F)c2)cc1F` [Example 105, 5-Chloro-2-fluoro-N-(methylsulfonyl)-4-(6-(2,2,3,3-tetrafluoropropoxy)-5-(trifluoromethyl)pyridin-3-yloxy)benzamide] as the compound, how does the pIC50 read?
Answer: 7.51

Question: `CS(=O)(=O)NC(=O)c1cc(Cl)c(Oc2cnc(C3CC3)c(OC(F)F)c2)cc1F` [Example 106, 5-chloro-4-(6-cyclopropyl-5-(difluoromethoxy)pyridin-3-yloxy)-2-fluoro-N-(methylsulfonyl)benzamide] was tested. Which pIC50 did it give?
Answer: 5.96

Question: With `CS(=O)(=O)NC(=O)c1cc(Cl)c(Oc2cnc(C3CC3)c(C(F)(F)F)c2)cc1F` [Example 107, 5-chloro-4-(6-cyclopropyl-5-(trifluoromethyl)pyridin-3-yloxy)-2-fluoro-N-(methylsulfonyl)benzamide] as the compound, how does the pIC50 read?
Answer: 7.31

Question: `CS(=O)(=O)NC(=O)c1cc(Cl)c(Oc2cnc(-c3ccccc3)c(Cl)c2)cc1F` [Example 108, 5-chloro-4-[(5-chloro-6-phenylpyridin-3-yl)oxy]-2-fluoro-N-(methylsulfonyl)benzamide] was tested. Which pIC50 did it give?
Answer: 6.62

Question: How did the pIC50 turn out when `CS(=O)(=O)NC(=O)c1cc(Cl)c(Oc2cnc(C3CC(F)(F)C3)c(Cl)c2)cc1F` [Example 109, 5-chloro-4-{[5-chloro-6-(3,3-difluorocyclobutyl)pyridin-3-yl]oxy}-2-fluoro-N-(methylsulfonyl)benzamide] was run?
Answer: 7.01

Question: `CS(=O)(=O)NC(=O)c1cc(Cl)c(Oc2cnc(C3CC3)c(OC(F)(F)F)c2)cc1F` [Example 110, 5-chloro-4-(6-cyclopropyl-5-(trifluoromethoxy)pyridin-3-yloxy)-2-fluoro-N-(methylsulfonyl)benzamide] was tested. Which pIC50 did it give?
Answer: 7.00

Question: How did the pIC50 turn out when `CC(C)c1ncc(Oc2cc(F)c(C(=O)NS(C)(=O)=O)cc2Cl)cc1Cl` [Example 111, 5-Chloro-4-(5-chloro-6-isopropylpyridin-3-yloxy)-2-fluoro-N-(methylsulfonyl)benzamide] was run?
Answer: 6.54

Question: With `CS(=O)(=O)NC(=O)c1cc(Cl)c(Oc2cnc(C3CCC3)c(Cl)c2)cc1F` [Example 112, 5-chloro-4-(5-chloro-6-cyclobutylpyridin-3-yloxy)-2-fluoro-N-(methylsulfonyl)benzamide] as the compound, how does the pIC50 read?
Answer: 7.72

Question: `CS(=O)(=O)NC(=O)c1cc(Cl)c(Oc2cnc(C3CC3)c(C3CC3)c2)cc1F` [Example 113, 5-chloro-4-[(5,6-dicyclopropylpyridin-3-yl)oxy]-2-fluoro-N-(methylsulfonyl)benzamide] was tested. Which pIC50 did it give?
Answer: 7.28

Question: With `CC(C)N(C)c1ncc(Oc2cc(F)c(C(=O)NS(C)(=O)=O)cc2F)cc1Cl` [Example 114, 4-({5-chloro-6-[isopropyl(methyl)amino]pyridin-3-yl}oxy)-2,5-difluoro-N-(methylsulfonyl)benzamide] as the compound, how does the pIC50 read?
Answer: 6.68

Question: `CS(=O)(=O)NC(=O)c1cc(F)c(Oc2cnc(NCC3CCC3)c(Cl)c2)cc1F` [Example 115, 4-({5-chloro-6-[(cyclobutylmethyl)amino]pyridin-3-yl}oxy)-2,5-difluoro-N-(methylsulfonyl)benzamide] was tested. Which pIC50 did it give?
Answer: 7.27

Question: How did the pIC50 turn out when `CN(c1ncc(Oc2cc(F)c(C(=O)NS(C)(=O)=O)cc2F)cc1Cl)C1CC1` [Example 116, 4-({5-chloro-6-[cyclopropyl(methyl)amino]pyridin-3-yl}oxy)-2,5-difluoro-N-(methylsulfonyl)benzamide] was run?
Answer: 6.01

Question: How did the pIC50 turn out when `CCN(C)c1ncc(Oc2cc(F)c(C(=O)NS(C)(=O)=O)cc2F)cc1Cl` [Example 117, 4-({5-chloro-6-[ethyl(methyl)amino]pyridin-3-yl}oxy)-2,5-difluoro-N-(methylsulfonyl)benzamide] was run?
Answer: 6.05

Question: With `CCN1CCN(c2ncc(Oc3cc(F)c(C(=O)NS(C)(=O)=O)cc3F)cc2Cl)CC1` [Example 118, 4-{[5-chloro-6-(4-ethylpiperazin-1-yl)pyridin-3-yl]oxy}-2,5-difluoro-N-(methylsulfonyl)benzamide] as the compound, how does the pIC50 read?
Answer: < 6.00

Question: With `CS(=O)(=O)NC(=O)c1cc(F)c(Oc2cnc(N3C[C@@H](F)[C@H](F)C3)c(Cl)c2)cc1F` [Example 119, 4-({5-chloro-6-[(3R,4R)-3,4-difluoropyrrolidin-1-yl]pyridin-3-yl}oxy)-2,5-difluoro-N-(methylsulfonyl)benzamide] as the compound, how does the pIC50 read?
Answer: 6.40

Question: `CS(=O)(=O)NC(=O)c1cc(F)c(Oc2cnc(N[C@H]3CC[C@H](F)C3)c(Cl)c2)cc1F` [Example 120, 4-[(5-chloro-6-{[(1S,3S)-3-fluorocyclopentyl]amino}pyridin-3-yl)oxy]-2,5-difluoro-N-(methylsulfonyl)benzamide] was tested. Which pIC50 did it give?
Answer: 6.18

Question: With `COCC1CCCN1c1ncc(Oc2cc(F)c(C(=O)NS(C)(=O)=O)cc2F)cc1Cl` (centres unmarked) [Example 121, 4-({5-chloro-6-[2-(methoxymethyl)pyrrolidin-1-yl]pyridin-3-yl}oxy)-2,5-difluoro-N-(methylsulfonyl)benzamide] as the compound, how does the pIC50 read?
Answer: 6.17

Question: `COC(C)(C)CNc1ncc(Oc2cc(F)c(C(=O)NS(C)(=O)=O)cc2F)cc1Cl` [Example 122, 4-({5-chloro-6-[(2-methoxy-2-methylpropyl)amino]pyridin-3-yl}oxy)-2,5-difluoro-N-(methylsulfonyl)benzamide] was tested. Which pIC50 did it give?
Answer: 6.60

Question: With `CS(=O)(=O)NC(=O)c1cc(F)c(Oc2cnc(N3CCC(F)(F)C3)c(Cl)c2)cc1F` [Example 123, 4-{[5-chloro-6-(3,3-difluoropyrrolidin-1-yl)pyridin-3-yl]oxy}-2,5-difluoro-N-(methylsulfonyl)benzamide] as the compound, how does the pIC50 read?
Answer: 6.92

Question: How did the pIC50 turn out when `CS(=O)(=O)NC(=O)c1cc(F)c(Oc2cnc(N3CCC(F)C3)c(Cl)c2)cc1F` (centres unmarked) [Example 124, 4-{[5-chloro-6-(3-fluoropyrrolidin-1-yl)pyridin-3-yl]oxy}-2,5-difluoro-N-(methylsulfonyl)benzamide] was run?
Answer: 6.19

Question: How did the pIC50 turn out when `COC1(C)CN(c2ncc(Oc3cc(F)c(C(=O)NS(C)(=O)=O)cc3F)cc2Cl)C1` [Example 125, 4-{[5-chloro-6-(3-methoxy-3-methylazetidin-1-yl)pyridin-3-yl]oxy}-2,5-difluoro-N-(methylsulfonyl)benzamide] was run?
Answer: 6.02

Question: With `CC1CCN(c2ncc(Oc3cc(F)c(C(=O)NS(C)(=O)=O)cc3F)cc2Cl)CC1` [Example 126, 4-{[5-chloro-6-(4-methylpiperidin-1-yl)pyridin-3-yl]oxy}-2,5-difluoro-N-(methylsulfonyl)benzamide] as the compound, how does the pIC50 read?
Answer: 6.33

Question: `CN1CCCC(Nc2ncc(Oc3cc(F)c(C(=O)NS(C)(=O)=O)cc3F)cc2Cl)C1` (centres unmarked) [Example 127, 4-({5-chloro-6-[(1-methylpiperidin-3-yl)amino]pyridin-3-yl}oxy)-2,5-difluoro-N-(methylsulfonyl)benzamide] was tested. Which pIC50 did it give?
Answer: < 6.00

Question: `CO[C@@H]1CCCN(c2ncc(Oc3cc(F)c(C(=O)NS(C)(=O)=O)cc3F)cc2Cl)C1` [Example 128, 4-({5-chloro-6-[(3R)-3-methoxypiperidin-1-yl]pyridin-3-yl}oxy)-2,5-difluoro-N-(methylsulfonyl)benzamide] was tested. Which pIC50 did it give?
Answer: 5.62

Question: With `CCC(COC)Nc1ncc(Oc2cc(F)c(C(=O)NS(C)(=O)=O)cc2F)cc1Cl` (centres unmarked) [Example 129, 4-[(5-chloro-6-{[1-(methoxymethyl)propyl]amino}pyridin-3-yl)oxy]-2,5-difluoro-N-(methylsulfonyl)benzamide] as the compound, how does the pIC50 read?
Answer: 6.27

Question: `CS(=O)(=O)NC(=O)c1cc(F)c(Oc2cnc(N3CC(F)(F)C3)c(Cl)c2)cc1F` [Example 130, 4-{[5-chloro-6-(3,3-difluoroazetidin-1-yl)pyridin-3-yl]oxy}-2,5-difluoro-N-(methylsulfonyl)benzamide] was tested. Which pIC50 did it give?
Answer: 6.13

Question: With `CS(=O)(=O)NC(=O)c1cc(F)c(Oc2cnc(N3C[C@H]4CC[C@@H]3C4)c(Cl)c2)cc1F` [Example 131, 4-({6-[(1R,4S)-2-azabicyclo[2.2.1]hept-2-yl]-5-chloropyridin-3-yl}oxy)-2,5-difluoro-N-(methylsulfonyl)benzamide] as the compound, how does the pIC50 read?
Answer: 7.15

Question: With `C[C@@H]1CCCN1c1ncc(Oc2cc(F)c(C(=O)NS(C)(=O)=O)cc2F)cc1Cl` [Example 132, 4-({5-chloro-6-[(2R)-2-methylpyrrolidin-1-yl]pyridin-3-yl}oxy)-2,5-difluoro-N-(methylsulfonyl)benzamide] as the compound, how does the pIC50 read?
Answer: 6.80

Question: How did the pIC50 turn out when `CN(c1ncc(Oc2cc(F)c(C(=O)NS(C)(=O)=O)cc2F)cc1Cl)C1CCC1` [Example 133, 4-({5-chloro-6-[cyclobutyl(methyl)amino]pyridin-3-yl}oxy)-2,5-difluoro-N-(methylsulfonyl)benzamide] was run?
Answer: 6.77
